US8268848B2, “Cyclopropane compound” (Eisai R&D Management Co., Ltd., priority 2010, dated 2012)
Like-named read-outs stand apart in the source and are kept apart here.

What was measured:
OX2 = biological target: T1, OX2 (Homo sapiens, UniProt O43614); experiment: Measurement of orexin receptor-binding ability ([125I]-OX-A, cell membranes, OX2); parameters: expressed in transfected cells; host or cells: CHO cells (membrane preparation); settings: membranes of recombinant CHO cells expressing OX2, 0.2 nM [125I]-OX-A
T1 sequence (O43614 1-444): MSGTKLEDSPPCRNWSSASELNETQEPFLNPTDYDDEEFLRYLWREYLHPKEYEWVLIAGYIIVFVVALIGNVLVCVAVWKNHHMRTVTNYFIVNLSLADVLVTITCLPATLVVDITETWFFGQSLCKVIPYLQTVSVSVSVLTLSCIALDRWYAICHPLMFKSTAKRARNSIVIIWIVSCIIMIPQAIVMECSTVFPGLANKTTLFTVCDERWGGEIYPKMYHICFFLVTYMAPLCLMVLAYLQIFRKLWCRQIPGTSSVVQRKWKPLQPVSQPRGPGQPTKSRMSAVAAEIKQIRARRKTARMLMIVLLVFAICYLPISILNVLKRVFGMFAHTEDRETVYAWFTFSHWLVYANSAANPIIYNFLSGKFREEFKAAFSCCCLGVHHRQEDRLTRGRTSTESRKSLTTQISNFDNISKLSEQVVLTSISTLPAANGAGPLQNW

OX1 [1] = biological target: T2, OX1 (Homo sapiens, UniProt O43613); experiment: Measurement of orexin receptor-binding ability ([125I]-OX-A, cell membranes, OX1); parameters: expressed in transfected cells; host or cells: CHO cells (membrane preparation)
T2 sequence (O43613 1-425): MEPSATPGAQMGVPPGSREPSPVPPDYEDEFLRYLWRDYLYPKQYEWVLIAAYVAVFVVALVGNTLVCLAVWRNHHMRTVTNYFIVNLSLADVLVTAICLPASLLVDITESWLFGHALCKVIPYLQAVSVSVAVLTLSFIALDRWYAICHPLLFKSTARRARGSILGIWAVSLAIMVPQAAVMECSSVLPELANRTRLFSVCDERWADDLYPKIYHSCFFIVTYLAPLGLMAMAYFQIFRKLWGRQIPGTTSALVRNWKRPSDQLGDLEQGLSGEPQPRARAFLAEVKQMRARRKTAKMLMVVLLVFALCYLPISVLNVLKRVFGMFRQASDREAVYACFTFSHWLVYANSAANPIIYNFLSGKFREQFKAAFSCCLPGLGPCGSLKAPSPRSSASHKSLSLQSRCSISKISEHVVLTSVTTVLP

mice (C57BL/6NCrlCrLj) = experiment: Sleep experiment (EEG/EMG) in mice; assay type: in vivo
Description: As a method for measuring the influence of the present compound on sleep time, electroencephalogram (EEG) and electromyogram (EMG) measurements were carried out in mice (C57BL/6NCrlCrLj).
In order to measure brain waves and muscle signals, EEG and EMG electrode implantation was performed on individual mice, and the mice were then housed in a state in which they could freely move and habituate in individual recording cages for 1 week or longer. Thereafter, amplified EEG and EMG signals were digitally recorded.
Mice received either oral administration of vehicle or test compound in vehicle, after which sleep/wake behavior of mice was recorded for 3 hours.
For sleep analysis, automatic analysis software from Kissei Comtec Co., Ltd. was used to analyze EEG frequency and EMG activity signals in detail and to determine sleep and wake states. Thereafter, accumulated sleeping time over 3 hours was calculated.
The effect of the compound to increase sleep time was evaluated as the difference between sleeping time on the vehicle-administration day and the sleep time on the subsequent drug-administration day.
The minimum effective dose (MED; mg/kg) was obtained from accumulated sleep time of mice with three hours after the administration.

OX1 [2] = biological target: T2, OX1; experiment: Measurement of antagonism (PLAP assay), OX1; assay type: cell-based; parameters: expressed in transfected cells; host or cells: HEK-293 cells, expression vector pBabeCLIH
Description: 2. Measurement of Antagonism (PLAP Assay)
The antagonistic function of the compound of the present invention to prevent the activation of OX2 and OX1 by orexin-A (OX-A), which is a natural peptide agonist, was measured using a cell-based reporter assay. […] The cells were plated at a density of 10,000 cells/well onto a non-coated 96-well plate in Dulbecco's modified Eagle medium (Sigma Cat No. D6046:10% v/v heat-inactivated fetal bovine serum was contained). The cells were cultured at 37° C. overnight, so that they could adhere to the plate. On the following day, cells were incubated with a compound of the present invention dissolved in Dulbecco's modified Eagle medium (Sigma Cat No. A8806:0.1% w/v bovine serum albumin was contained), and added to the cell plate to reach a final concentration of 0.1% dimethyl sulfoxide.
The thus obtained mixture was incubated at room temperature for 1 hour. Thereafter, human OX-A and forskolin were dissolved in the same medium as described above, which contained fetal bovine serum albumin, and the medium was then added to the cells, resulting in a final concentration of 300 nM forskolin. Subsequently, the cells were cultured at 37° C. for approximately 18 to 24 hours.

[3] = membranes of recombinant CHO cells expressing OX1, 0.2 nM [125I]-OX-A, read-out: OX1 (IC50)
[4] = mice, oral administration, difference to vehicle day, 3 hours

SMILES	IC50 (OX2; read-out: OX2 (IC50)) [nM]	IC50 (OX1 [1]; [3]) [nM]	IC50 (OX2; OX2 (IC50) nM) [nM]	IC50 (OX1 [1]) [nM]	further results
COc1cc(NC(=O)[C@@H]2C[C@@]2(COc2cnc(C)nc2C)c2ccccc2)ncc1F [Example 73, (1R,2S)-2-{[(2,4-dimethylpyrimidin-5-yl)oxy]methyl}-N-(5-fluoro-4-methoxypyridin-2-yl)-2-phenylcyclopropanecarboxamide]	5.7	3.4			Sleep extended time 10 mg/kg (min/3 hrs) (mice (C57BL/6NCrlCrLj); po, 3 h): 22.7 min/3 hrs
COCc1nc(C)ncc1OC[C@@]1(c2ccccc2)C[C@H]1C(=O)Nc1ccc(F)cn1 [Example 141, (1R,2S)-N-(5-fluoropyridin-2-yl)-2-{[(4-(methoxymethyl)-2-methylpyrimidin-5-yl)oxy]methyl}-2-phenylcyclopropanecarboxamide]	1.3	9			Sleep extended time 10 mg/kg (min/3 hrs) (mice (C57BL/6NCrlCrLj); po, 3 h): 28.7 min/3 hrs
Cc1ncc(OC[C@@]2(c3cccc(F)c3)C[C@H]2C(=O)Nc2ccc(C#N)cn2)c(C)n1 [Example 96, (1R,2S)-N-(5-cyanopyridin-2-yl)-2-{[(2,4-dimethylpyrimidin-5-yl)oxy]methyl}-2-(3-fluorophenyl)cyclopropanecarboxamide]			5	32	Sleep extended time 10 mg/kg (min/3 hrs) (mice (C57BL/6NCrlCrLj); [4]): 12.1 min/3 hrs
COCc1nc(C)ncc1OC[C@@]1(c2cccc(F)c2)C[C@H]1C(=O)Nc1ccc(F)cn1 [Example 191, (1R,2S)-2-(3-fluorophenyl)-N-(5-fluoropyridin-2-yl)-2-[(4-methoxymethyl-2-methylpyrimidin-5-yl)oxymethyl]cyclopropanecarboxamide]			1	1	Sleep extended time 10 mg/kg (min/3 hrs) (mice (C57BL/6NCrlCrLj); [4]): 41.8 min/3 hrs
Cc1ncc(OC[C@@]2(c3ccc(F)cc3)C[C@H]2C(=O)Nc2ccc(F)cc2)c(C)n1 [Example 105, (1R,2S)-N,2-bis(4-fluorophenyl)-2-{[(2,4-dimethylpyrimidin-5-yl)oxy]methyl}-N,2-bis(4-fluorophenyl)cyclopropanecarboxamide]			18	195	Sleep extended time 10 mg/kg (min/3 hrs) (mice (C57BL/6NCrlCrLj); [4]): 14.3 min/3 hrs
Cc1ncc(OC[C@@]2(c3cc(F)cc(F)c3)C[C@H]2C(=O)Nc2ccc(F)cc2)c(C)n1 [Example 130, (1R,2S)-2-(3,5-difluorophenyl)-2-{[(2,4-dimethylpyrimidin-5-yl)oxy]methyl}-N-(4-fluorophenyl)cyclopropanecarboxamide]	4	22			Sleep extended time 10 mg/kg (min/3 hrs) (mice (C57BL/6NCrlCrLj); po, 3 h): 24.2 min/3 hrs
COCc1nc(C)ncc1OC[C@@]1(c2cccc(F)c2)C[C@H]1C(=O)Nc1cc(C)c(F)cn1 [Example 199, (1R,2S)-N-(5-fluoro-4-methylpyridin-2-yl)-2-(3-fluorophenyl)-2-{[(4-methoxymethyl-2-methylpyrimidin-5-yl)oxy]methyl}cyclopropanecarboxamide]	2	2			Sleep extended time 10 mg/kg (min/3 hrs) (mice (C57BL/6NCrlCrLj); po, 3 h): 36.2 min/3 hrs
Cc1ncc(OC[C@@]2(c3cccc(F)c3)C[C@H]2C(=O)Nc2ccc(F)cn2)c(C)n1 [Example 95, (1R,2S)-2-{[(2,4-dimethylpyrimidin-5-yl)oxy]methyl}-2-(3-fluorophenyl)-N-(5-fluoropyridin-2-yl)cyclopropanecarboxamide]				13.4	Ki (OX1 [2]): 9.9 nM; Sleep extended time 10 mg/kg (min/3 hrs) (mice (C57BL/6NCrlCrLj); [4]): 39.8 min/3 hrs; minimum effective dose (MED) (mice (C57BL/6NCrlCrLj); mice, oral, doses 0.3 to 100 mg/kg, accumulated sleep time within three hours after administration): ≤ 1 mg/kg
COCc1nc(C)ncc1OC[C@@]1(c2ccc(F)cc2)C[C@H]1C(=O)Nc1ccc(Cl)cn1 [Example 204, (1R,2S)-N-(5-chloropyridin-2-yl)-2-(4-fluorophenyl)-2-{[(4-methoxymethyl-2-methylpyrimidin-5-yl)oxy]methyl}cyclopropanecarboxamide]	5	22			
Cc1ncc(N(C)C[C@@]2(c3ccccc3)C[C@H]2C(=O)Nc2cc(C)c(F)cn2)c(C)n1 [Example 299]	46	304			
Cc1ncc(OCC2(c3cccc(Cl)c3)CC2C(=O)Nc2ccc(C#N)cn2)c(C)n1 (stereo not shown) [Example 156]			13	42	
COCc1nc(C)ncc1OC[C@@]1(c2cccc(F)c2)C[C@H]1C(=O)Nc1ccc(F)cc1 [Example 192, (1R,2S)-2-(3-fluorophenyl)-N-(4-fluorophenyl)-2-{[(4-methoxymethyl-2-methylpyrimidin-5-yl)oxy]methyl}cyclopropanecarboxamide]	5	12			
Cc1ncc(OC[C@@]2(c3ccc(O)c(F)c3)C[C@H]2C(=O)Nc2ccc(F)cn2)c(C)n1 [Example 321, (1R,2S)-2-{[(2,4-dimethylpyrimidin-5-yl)oxy]methyl}-2-(3-fluoro-4-hydroxyphenyl)-N-(5-fluoropyridin-2-yl)cyclopropanecarboxamide]			7	20	
Cc1ncc(OC[C@@]2(c3ccccc3)C[C@H]2C(=O)Nc2cnc(Cl)c(Br)c2)c(C)n1 [Example 59]	51	1410			
CCc1nc(C)ncc1OC[C@@]1(c2ccccc2)C[C@H]1C(=O)Nc1cc(C)c(F)cn1 [Example 122]	7	< 20			
Cc1ncc(OCC2(c3cccc(Cl)c3)CC2C(=O)Nc2cccnc2)c(C)n1 (stereo not shown) [Example 157]			69	397	
Cc1ncc(OC[C@@]2(c3ccccc3)C[C@H]2C(=O)Nc2cc(Cl)ccn2)c(C)n1 [Example 49]			23	65	
Cc1ncc(OC[C@@]2(c3ccccc3)C[C@H]2C(=O)Nc2cc3ccccc3cn2)c(C)n1 [Example 52]	28	37			
COc1cccc(NC(=O)[C@@H]2C[C@@]2(COc2cnc(C)nc2C)c2ccccc2)n1 [Example 11]	53	279			
CCc1ncc(OC[C@@]2(c3ccccc3)C[C@H]2C(=O)Nc2ccc(F)cn2)c(C)n1 [Example 313]			107	224	
Cc1ncc(N(C)C[C@@]2(c3ccccc3)C[C@H]2C(=O)Nc2ccc(F)cc2)c(C)n1 [Example 300]	34	495			
COCc1nc(C)ncc1OC[C@@]1(c2ccc(F)cc2)C[C@H]1C(=O)Nc1ccc(F)cc1 [Example 203, (1R,2S)-N,2-bis(4-fluorophenyl)-2-{[(4-methoxymethyl-2-methylpyrimidin-5-yl)oxy]methyl}cyclopropanecarboxamide]	8	215			
Cc1ncc(OC[C@@]2(c3ccccc3)C[C@H]2C(=O)Nc2cccc(F)n2)c(C)n1 [Example 68]			56	140	
